Results taken from patent publication US20230002446A1, “ANTI-INFLAMMATORY AGENTS” (The University of Sydney, priority 2019, published 2023).
One block for each compound: values may come before it. Where no end group is shown, it is not given here. [ ]: non-standard residue; d: D form. Ala(3-Me-diazirin-3-yl) = CC1(C[C@H](N)C(=O)O)N=N1; PEG = not defined here

Assays:
C57BL/6 mice [1] = experiment: imiquimod-induced psoriasis model; assay type: in vivo
Method: FIG. 4—Peptide administration reduces local disease severity in a mouse model of psoriasis. (A) Experimental outline (B) Clinical scores of mice receiving PBS or peptide RP23 (SEQ ID NO:12) injection, compared to daily (0-4 days) topical application of glucocorticoid on the back and ear. (C) Measures of disease local to the peptide RP23 injection site. Redness was measured using an unbiased erythema meter and skin thickness by manual callipers. (D) Spleen weight at day 5 as a measure of systemic immune suppression. […] Data are presented as mean±S.E.M. Statistical significance was determined by ANOVA with Dunnett's multiple comparison test, *p<0.05, **p<0.01, ***p<0.001, ****p<0.0001.
FIG. 10. Therapeutic synergy of RP23 and topical steroid in the murine imiquimod-induced psoriasis model. Aldara cream (5% imiquimod, 57.5 mgs) was applied daily (days 0-4) to the backs of C57BL/6 female mice to induce psoriasis. Clinical scores (PASI), modified psoriasis area and severity index) of mice receiving (A) PBS or RP23 injection at day −1, with or without topical application of glucocorticoid (0.05% betamethasone dipropionate, “BD” 30 mgs) on the back at day 0 (B) PBS or RP23 injection at day 1 and topical application of glucocorticoid at day 1, in comparison to PBS injection only at day −1. Data are the means+/−SEM (n=5). Statistical significance was determined by ANOVA with Dunnett's multiple comparison test to PBS only control, *p<0.05, **p<0.01, ***p<0.001, ****p<0.0001.
The backs of 8-week old female C57BL/6 mice (Australian BioResources) were coarse shaved. A minimum of 24 hours later, 10 nmol RP23 was delivered via sub-cutaneous injection at the lower back in 200 μl phosphate buffered saline (PBS). Groups of mice acting as positive controls for disease development received injection of PBS only. One or seven days later, psoriasis-like inflammation was induced via topical application of 5% imiquimod cream (Aldara, Inova Pharmaceuticals) to the shaved back (57.5 mgs) and one ear (5 mg, divided between dorsal and ventral sides). The contralateral ear served as a negative control for imiquimod-induced inflammation. Imiquimod application was repeated daily for four consecutive days. C57BL/6 mice experience rapid weight loss (up to 20%) upon application of imiquimod cream. Supportive care was provided in the form of dietary supplementation commenced 2 days prior to imiquimod application, and intra-peritoneal injection of 300 μl sterile PBS on days two and three of imiquimod application. Disease progression was monitored for five days, by recording weight loss and grading disease of the back skin using a modified Psoriasis Area and Severity Index (PASI) clinical scoring system, that assessed only disease severity. Additionally, erythema meter (DSM II ColorMeter, Cortex Technology, Denmark) readings were taken at four quadrants on the back skin and skin backfold thickness measurements were recorded using manual callipers. Disease progression of the ear skin was determined by recording ear thickness, measured by manual callipers. As a positive control for immune suppressive therapy, groups of mice received daily topical application of betamethasone dipropionate 0.05% (MSD) cream (30 mgs on the back, 10 mgs on the ear).
Aldara cream (5% imiquimod, 57.5 mgs) was applied daily (days 0-4) to the backs of C57BL/6 female mice to induce psoriasis. Clinical scores (PASI, modified psoriasis area and severity index) of mice receiving prophylactic PBS or RP23 (at day −1), with or without topical application of glucocorticoid (0.05% betamethasone dipropionate, 30 mgs) to the back at day 0, were determined (FIG. 10A).
RP23 and BD therapy were also tested when given synergistically at a therapeutic timepoint (at day 1). Psoriasis was induced as above, but clinical scores were determined daily for 10 days after ceasing imiquimod application at day 5, to record the rate and degree of psoriasis disease resolution (FIG. 10B).

C57BL/6 mice [2] = experiment: contact hypersensitivity model (DNFB-induced contact dermatitis); assay type: in vivo; details: for specific increase in ear thickness: equivalent molar amount of 10 nmol RP23, subcutaneously at the abdomen (FIG. 9); for inflammatory response (ear thickness over 72 hours): 10 nmol subcutaneously at the abdomen, compared to PBS (FIG. 8)
Method: FIG. 2—Peptide administration reduces inflammation in a mouse model of contact dermatitis and reduces myeloid inflammatory infiltrate. (A) Experimental outline of DNFB-induced contact dermatitis. (B) Ear thickness of peptide RP23 (SEQ ID NO:12) treated mice, repeated 3 times. […] Data are presented as mean±S.E.M. Statistical significance was determined (B) by multiple t tests (C) by ANOVA with Dunnett's multiple comparison test, *p<0.05, **p<0.01, ***p<0.001.
FIG. 3—The peptide effect is dependent on the peptide sequence and dose. (A) PBS, scrambled peptide or peptide MUC1SP ([…]; SEQ ID NO: 3) was injected subcutaneously seven days prior to sensitising C57BL/6 mice (n=5) with DNFB on the abdomen. […] (B) A comparison of the immunosuppressive effect of peptide RP23 (SEQ ID NO:12) and MUC1SP (SEQ ID NO: 3). (C) SEQ ID NO:12 suppressed immunity in a dose dependent manner. (D) Addition of GM-CSF to the SEQ ID NO:12 injection abrogated the immune suppression. Data are the means±S.E.M.
FIG. 8—Effects of peptide variants on the inflammatory response. Mice received one injection of PBS or one of the following peptides (10 nmol) subcutaneously at the abdomen (A) peptide RP23 (SEQ ID NO: 12), peptide AF594-RP23 (SEQ ID NO: 21), peptide K4-G3-MUC1SP (SEQ ID NO:22) or MUC1SP C fragment (SEQ ID NO: 2). Five days later, mice were challenged with DNFB at a distal site, on the ears. The thickness of the ears was measured over 72 hours.
FIG. 9—Effects of further peptide variants, without N-terminal methionine, on the inflammatory response in a model of contact dermatitis. Mice received one injection of PBS, RP23 (SEQ ID NO:12) (10 nmol) or one of the peptide variants indicated in the table including SEQ ID NO: 32 and 35 as described herein (equivalent molar amount of RP23), subcutaneously at the abdomen. Photoleucine replaces leucine where indicated, these molecules used for photo-crosslinking studies. Seven days later, abdominal skin was sensitised with a contact irritant (DNFB) and five days later, mice were challenged with DNFB at a distal site, on the ears. (A) Specific increase in ear thickness over 72 hours, data are the means+/−SEM (n=6). Statistical significance was determined by ANOVA with Dunnett's multiple comparison test to PBS only control, **p<0.01. (B) Specific increase in ear thickness at 24 hours post-challenge. Data are the means+/−SEM (n=6). Statistical significance was determined by t-test to relevant control, as indicated, *p<0.05, **p<0.01, ns=not significant.
The abdomens of 8-week old female C57BL/6 mice (Australian BioResources) were coarse shaved. A minimum of 24 hours later, RP23 (SEQ ID NO:12) was delivered via sub-cutaneous injection at the abdomen in 50 μl phosphate buffered saline. Seven days later, mice were topically sensitised to 1-fluoro-2,4-dinitrobenzene (DNFB, 0.5 vol %) in olive oil/acetone (1:4, v/v, 30 μl) via application to the shaved abdomen. Five days after sensitisation, mice were challenged on the ears with topical DNFB (0.25 vol %) in olive oil/acetone (1:4, v/v, 15 μl per ear). Ear thickness was measured daily using manual callipers from immediately before challenge, up to 96 hours post challenge. Positive controls for ear swelling consisted of mice that were injected with PBS instead of RP23. Negative or irritant controls consisted of a group of mice that received the DNFB challenge, but not the sensitisation. The average of the change in ear thickness from this control group was subtracted from the change in ear thickness of other samples to account for non-specific irritation due to the application of DNFB, olive oil and acetone.
The inventors then conducted additional in vivo studies, using a model of contact hypersensitivity, to determine the portion of RP23 responsible for its immunomodulatory activity. Mice received one injection of peptide (10 nmol) subcutaneously at the abdomen, seven days prior to sensitisation of the skin with a contact irritant (DNFB). […]

C57BL/6 mice [3] = details: mouse, in vivo
Method: AF594-RP23^+ cells were identified by flow cytometry 24 hours after administration to C57BL/6 mice. (A) RP23 was injected subcutaneously at the lower back. […] (B) RP23 was delivered to the lungs by intranasal instillation. The percentage distribution of total RP23^+ leukocytes amongst immune cell subsets in the lungs is shown. Data are the means+/−SEM (n=4).
AF594-RP23+ cells were identified by flow cytometry 24 hours after administration to C57BL/6 mice.

[4] = daily topical 0.05% cream, 30 mgs back, 10 mgs ear

spleen weight (C57BL/6 mice [1]; [4]): substantial reductions in spleen weight
weight loss (C57BL/6 mice [1]; [4]): greater degree of weight loss
Compound: CCC(=O)OCC(=O)[C@@]1(OC(=O)CC)[C@@H](C)C[C@H]2[C@@H]3CCC4=CC(=O)C=C[C@]4(C)[C@@]3(F)[C@@H](O)C[C@@]21C [betamethasone dipropionate, reference compound]
clinical scores (PASI), protective effect as the disease progressed (C57BL/6 mice [1]; prophylactic: injection day -1, BD day 0, later time points): protective effect from BD alone was lost
systemic immune suppression / locality of effect (C57BL/6 mice [1]; spleen weight at day 5, distal ear thickness (FIG. 4d)): caused unwanted systemic immune suppression

Compound: (Gd)DOTA-KKKK-PEG-TPGTQSPFFLLLLLTVLTVV (KKKK[PEG]TPGTQSPFF[Ala(3-Me-diazirin-3-yl)][Ala(3-Me-diazirin-3-yl)][Ala(3-Me-diazirin-3-yl)][Ala(3-Me-diazirin-3-yl)][Ala(3-Me-diazirin-3-yl)]TVLTVV; not fully specified (N-terminus); reading uncertain; also: Gd chelated by DOTA; listed as Homo sapiens) [SEQ ID NO: 32]
specific increase in ear thickness (C57BL/6 mice [2]): confirmed

Compound: AF594-KKKK-PEG-MTPGTQSPFFLLLLLTVLTVV (KKKKMTPGTQSPFFLLLLLTVLTVV; AF594-KKKK-PEG N-terminal; (1)..(1) Alexa Fluor 594 backbone modification; (4)..(5) polyethylene glycol (PEG) backbone modification between residues 4 and 5; listed as Homo sapiens) [SEQ ID NO: 21]
inflammatory response (ear thickness over 72 hours) (C57BL/6 mice [2]): led to a reduced inflammatory response
cells capturing the peptide in the lung (C57BL/6 mice [3]): primarily captured by neutrophils, alveolar macrophages and DC
cells capturing the peptide in the skin (C57BL/6 mice [3]): primarily captured in the skin by neutrophils (CD11 b+Ly6G+) or CD11 b+ myeloid cell subsets

Compound: Biotin-KKKK-PEG-TPGTQSPFFLLLLL*TVLTVV, wherein L* is photoleucine [SEQ ID NO: 35]
specific increase in ear thickness (C57BL/6 mice [2]): confirmed

Compound: Biotin-KKKK-peg-QLTLTFVPSTLGFL*TLPVLV (no N-term Met) [scrambled variant of SEQ ID NO. 35, reference compound]
specific increase in ear thickness (C57BL/6 mice [2]): did not have a reduction in ear inflammation

Compound: KKKKGGGMTPGTQSPFFLLLLLTVLTVV (listed as Homo sapiens) [SEQ ID NO: 22]
inflammatory response (ear thickness over 72 hours) (C57BL/6 mice [2]): led to a reduced inflammatory response

Compound: LLLLLTVLTVV (listed as Homo sapiens) [SEQ ID NO: 2]
inflammatory response (ear thickness over 72 hours) (C57BL/6 mice [2]): led to a reduced inflammatory response

Compound: MTPGTQSPFFLLLLLTVLTVV (listed as Homo sapiens) [SEQ ID NO: 3]
ear swelling, sequence specificity (C57BL/6 mice [2]; subcutaneous seven days prior to sensitising with DNFB (FIG. 3a)): the effect was specific to the SEQ ID NO: 3 sequence
